pIC50: −log10 of the molar value.
Test system: NCI-H1876 tumor spheroid viability
Assay: Anticancer human tumor NCI-H1876 cell line growth inhibition;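 note: spheroids exposed to compounds for seven days before the viability read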;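 for viability, T/C: percent of DMSO vehicle control viability so 100% = vehicle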
Details: spheroids with HUVEC and MSC; for pIC50: curve of first compound; for viability, T/C: stronger effect = lower value; active = viability on the fitted dose curve at most 10% of control; inactive = the rest
Outline: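 Single agents and combinations were tested on spheroids built from tumor cells plus HUVEC and hMSC, at half-log dilutions starting at or near clinical Cmax, else 10 microM; final DMSO 0.25% (v/v).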

[1] = second compound 1 µM, first compound 0.00949 µM
[2] = second compound 1 µM, first compound 0.03 µM
[3] = second compound 1 µM, first compound 0.0949 µM
[4] = second compound 1 µM, first compound 0.3 µM
[5] = second compound 1 µM, first compound 0.949 µM
[6] = second compound 1 µM, first compound 3 µM
[7] = second compound 3.16 µM, first compound 0.00949 µM
[8] = second compound 3.16 µM, first compound 0.03 µM
[9] = second compound 3.16 µM, first compound 0.0949 µM
[10] = second compound 3.16 µM, first compound 0.3 µM
[11] = second compound 3.16 µM, first compound 0.949 µM
[12] = second compound 3.16 µM, first compound 3 µM
[13] = second compound 10 µM, first compound 0.00949 µM
[14] = second compound 10 µM, first compound 0.03 µM
[15] = second compound 10 µM, first compound 0.0949 µM
[16] = second compound 10 µM, first compound 0.3 µM
[17] = second compound 10 µM, first compound 0.949 µM
[18] = second compound 10 µM, first compound 3 µM
[19] = second compound 31.6 µM, first compound 0.00949 µM
[20] = second compound 31.6 µM, first compound 0.03 µM
[21] = second compound 31.6 µM, first compound 0.0949 µM
[22] = second compound 31.6 µM, first compound 0.3 µM
[23] = second compound 31.6 µM, first compound 0.949 µM
[24] = second compound 31.6 µM, first compound 3 µM
[25] = second compound 100 µM, first compound 0.00949 µM
[26] = second compound 100 µM, first compound 0.03 µM
[27] = second compound 100 µM, first compound 0.0949 µM
[28] = second compound 100 µM, first compound 0.3 µM
[29] = second compound 100 µM, first compound 0.949 µM
[30] = second compound 100 µM, first compound 3 µM

CNCc1ccc(-c2cc(-c3nc(-c4ccc(S(=O)(=O)C(C)C)cc4)cnc3N)on2)cc1 + Cn1nnc2c(C(N)=O)ncn2c1=O
active: viability, T/C [6] 0.35% | viability, T/C [12] 0.44% | viability, T/C [18] 11% | viability, T/C [30] 0.26%
7.03: pIC50 (second compound 10 µM)
7.08: pIC50 (second compound 3.16 µM)
inactive: viability, T/C [1] 82% | viability, T/C [2] 70.7% | viability, T/C [3] 54.9% | viability, T/C [4] 33.6% | viability, T/C [5] 12.6% | viability, T/C [7] 95.4% | viability, T/C [8] 54.9% | viability, T/C [9] 55.4% | viability, T/C [10] 29.7% | viability, T/C [11] 15.2% | viability, T/C [13] 86.9% | viability, T/C [14] 65.2% | viability, T/C [15] 54% | viability, T/C [16] 29.9% | viability, T/C [17] 13.1% | viability, T/C [19] 82% | viability, T/C [20] 57.8% | viability, T/C [21] 58.2% | viability, T/C [22] 30.1% | viability, T/C [23] 51.8% | viability, T/C [24] 45.7% | viability, T/C [25] 50.8% | viability, T/C [26] 43% | viability, T/C [27] 36.5% | viability, T/C [28] 20.9% | viability, T/C [29] 47.9%
6.92: pIC50 (second compound 1 µM)
> 8.02: pIC50 (second compound 100 µM)
7.05: pIC50 (second compound 31.6 µM)

Cc1sc2c(c1C)C(c1ccc(Cl)cc1)=NC(CC(=O)Nc1ccc(O)cc1)c1nnc(C)n1-2 (stereo not given) + Cn1nnc2c(C(N)=O)ncn2c1=O
7.05: pIC50 (second compound 10 µM)
7.63: pIC50 (second compound 100 µM)
inactive: viability, T/C [1] 85.6% | viability, T/C [2] 56% | viability, T/C [3] 45% | viability, T/C [4] 27% | viability, T/C [5] 15.7% | viability, T/C [7] 84% | viability, T/C [8] 75.2% | viability, T/C [9] 54.2% | viability, T/C [10] 50.6% | viability, T/C [11] 15.3% | viability, T/C [13] 87.3% | viability, T/C [14] 62.2% | viability, T/C [15] 55.1% | viability, T/C [16] 31% | viability, T/C [17] 15.1% | viability, T/C [19] 87.3% | viability, T/C [20] 75.6% | viability, T/C [21] 39.4% | viability, T/C [22] 25.6% | viability, T/C [23] 13.2% | viability, T/C [24] 8.31% | viability, T/C [25] 63.4% | viability, T/C [26] 44.6% | viability, T/C [27] 34.2% | viability, T/C [28] 19.6% | viability, T/C [29] 9.06%
6.75: pIC50 (second compound 3.16 µM)
7.25: pIC50 (second compound 1 µM)
7.13: pIC50 (second compound 31.6 µM)
active: viability, T/C [6] 8.48% | viability, T/C [12] 10.5% | viability, T/C [18] 9% | viability, T/C [30] 4.09%

Cn1ncnc1[C@H]1c2n[nH]c(=O)c3cc(F)cc(c23)N[C@@H]1c1ccc(F)cc1 + Cn1nnc2c(C(N)=O)ncn2c1=O
> 8.02: pIC50 (second compound 31.6 µM) | pIC50 (second compound 100 µM)
7.22: pIC50 (second compound 3.16 µM)
active: viability, T/C [6] 5.26% | viability, T/C [23] 8.61% | viability, T/C [24] 4.86%
inactive: viability, T/C [1] 70.1% | viability, T/C [2] 54.6% | viability, T/C [3] 39% | viability, T/C [4] 25.1% | viability, T/C [5] 10.8% | viability, T/C [7] 72.4% | viability, T/C [8] 52.1% | viability, T/C [9] 52.3% | viability, T/C [10] 20% | viability, T/C [11] 50% | viability, T/C [12] 15.5% | viability, T/C [13] 56.8% | viability, T/C [14] 38.1% | viability, T/C [15] 47.2% | viability, T/C [16] 15% | viability, T/C [17] 33.5% | viability, T/C [18] 5.45% | viability, T/C [19] 29.2% | viability, T/C [20] 19.2% | viability, T/C [21] 14.5% | viability, T/C [22] 12% | viability, T/C [25] 13.8% | viability, T/C [26] 10.8% | viability, T/C [27] 11.6% | viability, T/C [28] 9.19% | viability, T/C [29] 33.3% | viability, T/C [30] 4.67%
7.80: pIC50 (second compound 10 µM)
7.36: pIC50 (second compound 1 µM)
